The target in series [1] is Dipeptidyl peptidase 8 (Homo sapiens, UniProt Q6V1X1). As to the kind of experiment: Inhibition of DPP-8 (unknown origin).
The target in series [2] is Dipeptidyl peptidase 9 (Homo sapiens, UniProt Q86TI2).
Description: Inhibition of DPP-9 (unknown origin)
For series [3], the target named is Cytochrome P450 3A4 (Homo sapiens, UniProt P08684). Nature of the series: Inhibition of CYP3A (unknown origin). It is filed as ADME.
The nature of series [4]: Half life in Sprague-Dawley rat at 25 mg/kg, po. It is filed as ADME, organism-based. Also noted: dose 25 mg/kg, route oral. Particulars: in vivo.
A short description of series [5]: Oral bioavailability in Sprague-Dawley rat at 25 mg/kg. Format: ADME, organism-based. Particulars: in vivo.
The nature of series [6]: AUC (0 to t) in Sprague-Dawley rat at 25 mg/kg, po. Particulars: plasma. Format: ADME, organism-based. On the set-up: dose 25 mg/kg, route oral.
Series [7] concerns Mus musculus. Nature of the series: In vivo inhibition of DPP-4 in ICR mouse assessed as cleavage rate of Gly-Pro-AMC in plasma at 1 mg/kg, po measured at 24 hrs by fluorescence assay relative to control. It is filed as functional.
For series [8], the system named is Mus musculus. Nature of the series: In vivo inhibition of DPP-4 in ICR mouse assessed as cleavage rate of Gly-Pro-AMC in plasma at 1 mg/kg, po measured at 4.5 hrs by fluorescence assay relative to control. It is filed as functional.
Series [9] in a line: Apparent volume of distribution during terminal phase in Sprague-Dawley rat at 5 mg/kg, iv and 25 mg/kg, po. It is filed as ADME, organism-based. Particulars: in vivo, read-out: Vz/F.
Series [10] deals with Mus musculus. Nature of the series: In vivo inhibition of DPP-4 in ICR mouse assessed as cleavage rate of Gly-Pro-AMC in plasma at 3 mg/kg, po measured at 0.5 hrs by fluorescence assay relative to control. It is filed as functional.
Series [11] has as its system Mus musculus. Nature of the series: In vivo inhibition of DPP-4 in ICR mouse assessed as cleavage rate of Gly-Pro-AMC in plasma at 3 mg/kg, po measured at 24 hrs by fluorescence assay relative to control. Format: functional.
Series [12] has as its system Mus musculus. Nature of the series: In vivo inhibition of DPP-4 in ICR mouse assessed as cleavage rate of Gly-Pro-AMC in plasma at 3 mg/kg, po measured at 7 hrs by fluorescence assay relative to control. It is filed as functional.
Series [13] is described as follows: Half life in Sprague-Dawley rat at 5 mg/kg, iv. It is filed as ADME, organism-based. Particulars: in vivo. Also noted: dose 5 mg/kg, route intravenous.
Series [14] addresses Voltage-gated inwardly rectifying potassium channel KCNH2 (Homo sapiens, UniProt Q12809). As to the kind of experiment: Inhibition of human ERG.
Series [15] has as its system Mus musculus. As to the kind of experiment: In vivo inhibition of DPP-4 in ICR mouse assessed as cleavage rate of Gly-Pro-AMC in plasma at 1 mg/kg, po measured at 7 hrs by fluorescence assay relative to control. It is filed as functional.
Series [16] in a line: Plasma clearance in Sprague-Dawley rat at 5 mg/kg, iv and 25 mg/kg, po. Format: ADME, organism-based.
The subject of series [17] is Mus musculus. Nature of the series: In vivo inhibition of DPP-4 in ICR mouse assessed as cleavage rate of Gly-Pro-AMC in plasma at 1 mg/kg, po measured at 0.5 hrs by fluorescence assay relative to control. Format: functional.
For series [18], the system named is Mus musculus. As to the kind of experiment: In vivo inhibition of DPP-4 in ICR mouse assessed as cleavage rate of Gly-Pro-AMC in plasma at 3 mg/kg, po measured at 4.5 hrs by fluorescence assay relative to control. It is filed as functional.

Sequence of Dipeptidyl peptidase 8 (Q6V1X1 whole entry): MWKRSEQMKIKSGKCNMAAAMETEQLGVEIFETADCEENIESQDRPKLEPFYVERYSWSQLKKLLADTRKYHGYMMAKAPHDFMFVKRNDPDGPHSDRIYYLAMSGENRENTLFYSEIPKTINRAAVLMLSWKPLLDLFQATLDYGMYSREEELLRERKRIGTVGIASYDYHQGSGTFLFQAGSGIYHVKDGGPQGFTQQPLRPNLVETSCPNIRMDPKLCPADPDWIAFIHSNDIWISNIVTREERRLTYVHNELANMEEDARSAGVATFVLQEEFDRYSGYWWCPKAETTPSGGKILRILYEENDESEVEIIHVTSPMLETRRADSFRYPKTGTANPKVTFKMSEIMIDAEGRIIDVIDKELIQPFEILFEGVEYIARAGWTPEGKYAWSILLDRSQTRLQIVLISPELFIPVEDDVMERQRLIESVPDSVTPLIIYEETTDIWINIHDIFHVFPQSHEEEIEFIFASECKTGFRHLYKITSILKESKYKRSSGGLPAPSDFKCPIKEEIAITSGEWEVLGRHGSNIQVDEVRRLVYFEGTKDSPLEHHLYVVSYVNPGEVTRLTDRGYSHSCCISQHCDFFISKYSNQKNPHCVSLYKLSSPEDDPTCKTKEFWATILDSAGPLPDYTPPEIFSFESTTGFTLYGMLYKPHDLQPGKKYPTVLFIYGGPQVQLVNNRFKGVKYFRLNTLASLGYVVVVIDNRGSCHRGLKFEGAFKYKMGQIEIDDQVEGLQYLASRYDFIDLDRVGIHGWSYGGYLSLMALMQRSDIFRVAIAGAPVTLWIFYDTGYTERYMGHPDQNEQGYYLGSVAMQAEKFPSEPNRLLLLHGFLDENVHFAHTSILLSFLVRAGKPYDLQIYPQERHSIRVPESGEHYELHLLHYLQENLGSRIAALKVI
Sequence of Dipeptidyl peptidase 9 (Q86TI2 whole entry): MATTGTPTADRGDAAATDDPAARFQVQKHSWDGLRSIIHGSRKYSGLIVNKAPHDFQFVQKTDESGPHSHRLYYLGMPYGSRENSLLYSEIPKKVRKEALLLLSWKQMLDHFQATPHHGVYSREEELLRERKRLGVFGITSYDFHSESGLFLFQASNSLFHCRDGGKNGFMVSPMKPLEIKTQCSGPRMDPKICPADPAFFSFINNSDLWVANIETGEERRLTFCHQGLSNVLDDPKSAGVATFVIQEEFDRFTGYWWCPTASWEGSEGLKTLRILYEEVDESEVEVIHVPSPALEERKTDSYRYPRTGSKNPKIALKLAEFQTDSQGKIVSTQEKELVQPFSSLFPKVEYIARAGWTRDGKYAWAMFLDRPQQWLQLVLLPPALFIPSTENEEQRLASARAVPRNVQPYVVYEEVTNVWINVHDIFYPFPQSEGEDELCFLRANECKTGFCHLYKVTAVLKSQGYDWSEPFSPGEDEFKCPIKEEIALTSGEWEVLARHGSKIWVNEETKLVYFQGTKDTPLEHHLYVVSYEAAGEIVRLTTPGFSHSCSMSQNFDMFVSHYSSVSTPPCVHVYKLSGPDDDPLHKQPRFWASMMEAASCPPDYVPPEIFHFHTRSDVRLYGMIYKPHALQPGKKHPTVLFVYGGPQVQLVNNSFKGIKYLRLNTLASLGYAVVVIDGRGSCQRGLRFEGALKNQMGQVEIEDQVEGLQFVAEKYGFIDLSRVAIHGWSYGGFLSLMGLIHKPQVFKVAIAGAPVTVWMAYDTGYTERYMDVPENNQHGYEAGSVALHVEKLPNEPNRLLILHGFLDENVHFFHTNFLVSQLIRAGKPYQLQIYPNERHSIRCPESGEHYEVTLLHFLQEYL
Sequence of Cytochrome P450 3A4 (P08684 whole entry): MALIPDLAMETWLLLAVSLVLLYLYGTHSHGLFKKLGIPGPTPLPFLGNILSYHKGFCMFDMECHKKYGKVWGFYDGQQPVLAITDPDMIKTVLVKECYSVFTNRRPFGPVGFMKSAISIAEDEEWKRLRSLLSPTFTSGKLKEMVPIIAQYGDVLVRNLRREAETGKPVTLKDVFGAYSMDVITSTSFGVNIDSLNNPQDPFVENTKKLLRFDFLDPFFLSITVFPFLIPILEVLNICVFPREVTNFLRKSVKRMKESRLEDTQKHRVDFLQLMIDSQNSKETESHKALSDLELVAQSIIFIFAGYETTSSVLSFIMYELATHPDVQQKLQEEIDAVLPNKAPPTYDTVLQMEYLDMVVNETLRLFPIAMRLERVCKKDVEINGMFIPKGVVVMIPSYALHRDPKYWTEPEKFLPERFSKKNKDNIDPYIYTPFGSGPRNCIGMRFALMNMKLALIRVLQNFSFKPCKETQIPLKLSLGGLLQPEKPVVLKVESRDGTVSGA
Sequence of Voltage-gated inwardly rectifying potassium channel KCNH2 (Q12809 whole entry): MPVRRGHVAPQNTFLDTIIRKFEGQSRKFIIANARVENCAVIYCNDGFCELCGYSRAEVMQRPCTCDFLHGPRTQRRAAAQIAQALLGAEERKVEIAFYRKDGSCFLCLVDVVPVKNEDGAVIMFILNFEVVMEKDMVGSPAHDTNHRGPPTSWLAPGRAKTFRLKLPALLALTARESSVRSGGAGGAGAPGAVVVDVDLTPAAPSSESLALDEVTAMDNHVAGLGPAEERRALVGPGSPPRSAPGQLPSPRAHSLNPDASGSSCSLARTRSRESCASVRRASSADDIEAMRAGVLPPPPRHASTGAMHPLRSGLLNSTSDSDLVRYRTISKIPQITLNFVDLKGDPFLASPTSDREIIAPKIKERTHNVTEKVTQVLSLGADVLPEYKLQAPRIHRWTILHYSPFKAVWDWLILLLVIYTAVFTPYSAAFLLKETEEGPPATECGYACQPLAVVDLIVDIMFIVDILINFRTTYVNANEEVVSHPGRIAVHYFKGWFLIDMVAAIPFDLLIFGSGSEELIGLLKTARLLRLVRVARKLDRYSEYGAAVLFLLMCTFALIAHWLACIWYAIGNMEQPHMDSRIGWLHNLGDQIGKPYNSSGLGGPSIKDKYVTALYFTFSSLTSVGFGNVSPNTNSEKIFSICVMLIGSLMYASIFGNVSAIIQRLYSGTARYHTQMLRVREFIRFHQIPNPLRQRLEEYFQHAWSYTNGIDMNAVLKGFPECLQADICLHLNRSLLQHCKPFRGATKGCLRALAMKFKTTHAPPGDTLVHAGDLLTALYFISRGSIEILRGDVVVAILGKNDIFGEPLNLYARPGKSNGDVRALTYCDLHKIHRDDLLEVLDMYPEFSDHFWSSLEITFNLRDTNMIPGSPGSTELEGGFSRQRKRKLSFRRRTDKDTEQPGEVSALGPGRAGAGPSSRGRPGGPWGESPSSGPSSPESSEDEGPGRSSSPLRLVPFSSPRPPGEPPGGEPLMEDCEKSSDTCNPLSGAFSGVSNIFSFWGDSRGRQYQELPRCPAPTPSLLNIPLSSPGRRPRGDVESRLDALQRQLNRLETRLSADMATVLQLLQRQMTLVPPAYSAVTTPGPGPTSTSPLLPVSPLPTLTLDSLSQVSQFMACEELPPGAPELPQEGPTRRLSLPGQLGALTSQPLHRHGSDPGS

As a reminder, the IC50 is the concentration at which inhibition is half-maximal. Higher therefore signals weaker potency. Take `CC#CCn1c(N2CCC[C@@H](N)C2)cc(=O)n(CC#CC)c1=O`: the IC50 in [1] and in series [2] was greater than 100 µM in each case.
Take `CC#CCn1c(N2CCC[C@@H](N)C2)cc(=O)n(Cc2ccccc2)c1=O`: the IC50 in series [1] and in [2] was greater than 100 µM each time.
As to `CC#CCn1c(N2CCC[C@@H](N)C2)cc(=O)n(Cc2ncccn2)c1=O`, the IC50 in [1] and in series [2] was greater than 100 µM each time.
For the molecule `CC#CCn1c(N2CCC[C@@H](N)C2)cc(=O)n(Cc2nc3ccccc3[nH]2)c1=O`, the IC50 in series [1] and in series [2] was greater than 100 µM throughout.
As usually defined, the half-life is the time in which the quantity being followed falls by half. A higher half-life goes with slow loss. For orientation: bioavailability means the share of a dose that reaches the circulation, judged against a reference dose that is usually intravenous. For `CC#CCn1c(N2CCC[C@@H](N)C2)cc(=O)n(Cc2ccc3ccccc3n2)c1=O`, the half-maximal inhibitory concentration (IC50) in [1] is greater than 100 µM; in series [3], 97.9 µM; in series [2], greater than 100 µM. The molecule also had a half-life in [4] of 4.2 h. The molecule also gave a bioavailability in [5] of 63%.
On to `CC#CCn1c(N2CCC[C@@H](N)C2)cc(=O)n(Cc2ccc3c(ccc4ccccc43)n2)c1=O`, for which the IC50 in series [1] and in series [2] was greater than 100 µM in each case.
Regarding `CC#CCn1c(N2CCC[C@@H](N)C2)cc(=O)n(Cc2ccc3cc(Br)ccc3n2)c1=O`, the 50% inhibitory concentration (IC50) in series [1] is greater than 100 µM; in [3], 79.4 µM; in series [2] it was greater than 100 µM.
Turning to `CC#CCn1c(N2CCC[C@@H](N)C2)cc(=O)n(Cc2ccc3cc(Cl)ccc3n2)c1=O`, the IC50 in [1] was greater than 100 µM; in series [3], 91.9 µM; in series [2] it was greater than 100 µM.
With `CC#CCn1c(N2CCC[C@@H](N)C2)cc(=O)n(Cc2ccc3cc(F)ccc3n2)c1=O`, the IC50 in series [1] is greater than 100 µM; in series [3], 58.3 µM; in series [2] it was greater than 100 µM.
With `CC#CCn1c(N2CCC[C@@H](N)C2)cc(=O)n(Cc2ccc3cc(C)ccc3n2)c1=O`, the half-inhibitory concentration (IC50) in series [1] is greater than 100 µM; in series [3] it was 46.2 µM; in series [2], greater than 100 µM.
Turning to `CC#CCn1c(N2CCC[C@@H](N)C2)cc(=O)n(Cc2ccc3cc(OC)ccc3n2)c1=O`, the IC50 is greater than 100 µM in [1], 42.2 µM in series [3] and greater than 100 µM in series [2].
For orientation: AUC(0-t) means exposure summed from dosing to a finite time, without extrapolation to infinity. Read a low AUC(0-t) as low exposure. In general, inhibition in vivo refers to the drop in the measured response relative to a control, in per cent. On to `CC#CCn1c(N2CCC[C@@H](N)C2)cc(=O)n(Cc2ccc3ccc(Cl)cc3n2)c1=O`, for which the half-maximal inhibitory concentration (IC50) in [1] is greater than 100 µM; in [3] it was 46.2 µM; in series [14], greater than 100 µM; in series [2] it was greater than 100 µM. In series [6], this molecule had an AUC(0-t) of 17600 ng·h/mL. For the same molecule, the inhibition in vivo at 1 mg/kg turned out to be 11.5% in series [7], 76% in [8], 71.6% in series [15] and 51.8% in series [17]. The Vd/F in series [9] came to 8.65 L/kg. Moreover, the inhibition in vivo at 3 mg/kg amounted to 80.4% in series [10], 13.5% in series [11], 82.3% in [12] and 84.7% in [18]. Besides, the half-life was 5.02 h in [4] and 5.65 h in series [13]. The molecule also had a clearance in series [16] of 17.5 mL/min/kg. Further, the bioavailability in [5] was 73%.
In the case of `CC#CCn1c(N2CCC[C@@H](N)C2)cc(=O)n(Cc2ccc3ccc(F)cc3n2)c1=O`, the IC50 was greater than 100 µM in series [1], 54.7 µM in [3] and greater than 100 µM in [2].
Consider `CC#CCn1c(N2CCC[C@@H](N)C2)cc(=O)n(Cc2cc(Cl)c3ccccc3n2)c1=O`, for which the IC50 is greater than 100 µM in series [1] and 14.1 µM in series [3].
Take `Cn1c(=O)cc(N2CCC[C@@H](N)C2)n(Cc2ccccc2C#N)c1=O` [ALOGLIPTIN]: the inhibition in vivo at 1 mg/kg in series [7] stood at 0.5%; in series [8], 49.4%; in [15], 27.6%; in series [17], 72.6%. In addition, the inhibition in vivo at 3 mg/kg amounted to 83.8% in series [10], 0.8% in series [11], 50.9% in series [12] and 71.5% in series [18]. In series [4], this molecule gave a half-life of 2 h.

Source of the values: ChEMBL document CHEMBL2424575 (Eur J Med Chem, 2013).
